Experimental data as given in publication PMC12332164, “Synthesis and biological activity study of tanshinone I-pyridinium salt derivatives” (Natural Products and Bioprospecting, 2025).

Target: T1, PI3Kα (Homo sapiens, UniProt P42336)
T1 construct: gene PIK3CA
Experiment: biochemical

T1 sequence (P42336 whole entry): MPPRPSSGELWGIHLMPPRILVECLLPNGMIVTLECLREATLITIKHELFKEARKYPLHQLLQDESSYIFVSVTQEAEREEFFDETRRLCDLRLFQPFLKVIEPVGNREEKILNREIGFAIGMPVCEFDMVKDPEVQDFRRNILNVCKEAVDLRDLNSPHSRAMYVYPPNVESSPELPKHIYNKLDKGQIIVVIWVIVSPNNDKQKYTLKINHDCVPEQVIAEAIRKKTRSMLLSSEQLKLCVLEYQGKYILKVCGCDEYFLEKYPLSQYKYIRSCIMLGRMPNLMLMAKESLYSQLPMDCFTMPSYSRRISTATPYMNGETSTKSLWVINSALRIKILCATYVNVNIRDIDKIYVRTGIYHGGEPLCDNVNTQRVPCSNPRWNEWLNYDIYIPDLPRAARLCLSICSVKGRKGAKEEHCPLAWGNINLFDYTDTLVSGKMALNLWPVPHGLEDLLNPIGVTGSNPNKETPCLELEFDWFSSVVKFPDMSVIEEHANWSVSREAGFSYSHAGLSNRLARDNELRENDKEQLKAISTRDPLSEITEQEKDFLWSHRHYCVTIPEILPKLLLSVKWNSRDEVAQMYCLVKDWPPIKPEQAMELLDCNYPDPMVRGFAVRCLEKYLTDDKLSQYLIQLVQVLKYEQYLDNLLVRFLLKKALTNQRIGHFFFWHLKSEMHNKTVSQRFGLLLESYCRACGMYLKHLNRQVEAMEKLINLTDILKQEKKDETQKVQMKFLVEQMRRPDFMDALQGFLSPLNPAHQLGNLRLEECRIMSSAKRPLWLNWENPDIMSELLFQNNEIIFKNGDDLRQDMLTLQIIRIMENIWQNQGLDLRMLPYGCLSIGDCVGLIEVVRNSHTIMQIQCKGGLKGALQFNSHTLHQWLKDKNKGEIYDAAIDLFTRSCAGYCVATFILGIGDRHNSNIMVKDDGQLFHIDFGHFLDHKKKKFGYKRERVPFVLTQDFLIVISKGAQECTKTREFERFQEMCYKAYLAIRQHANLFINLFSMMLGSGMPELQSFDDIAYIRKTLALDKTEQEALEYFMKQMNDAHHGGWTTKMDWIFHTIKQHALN
T1 sequence (P27986 2-724, further chain): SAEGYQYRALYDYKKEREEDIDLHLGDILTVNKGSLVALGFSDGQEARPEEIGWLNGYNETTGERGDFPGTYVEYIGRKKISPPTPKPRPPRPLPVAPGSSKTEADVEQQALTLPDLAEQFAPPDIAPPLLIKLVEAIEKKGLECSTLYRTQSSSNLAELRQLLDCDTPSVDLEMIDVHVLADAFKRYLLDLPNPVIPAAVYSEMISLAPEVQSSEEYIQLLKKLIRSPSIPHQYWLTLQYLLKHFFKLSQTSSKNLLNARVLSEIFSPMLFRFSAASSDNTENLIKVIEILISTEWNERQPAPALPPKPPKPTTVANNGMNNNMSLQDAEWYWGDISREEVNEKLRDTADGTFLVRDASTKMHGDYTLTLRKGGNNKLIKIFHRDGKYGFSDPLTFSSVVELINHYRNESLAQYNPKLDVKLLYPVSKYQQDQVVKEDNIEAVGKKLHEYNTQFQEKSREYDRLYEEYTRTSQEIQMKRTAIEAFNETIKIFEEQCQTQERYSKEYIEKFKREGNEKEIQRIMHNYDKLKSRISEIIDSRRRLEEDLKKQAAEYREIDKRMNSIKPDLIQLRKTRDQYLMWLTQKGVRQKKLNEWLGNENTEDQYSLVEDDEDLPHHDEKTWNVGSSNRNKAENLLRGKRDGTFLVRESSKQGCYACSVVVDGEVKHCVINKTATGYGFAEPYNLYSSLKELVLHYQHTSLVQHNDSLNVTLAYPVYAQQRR

Cc1cccc2c1ccc1c3occ(C)c3c3[nH]c(-c4ccc[n+](CC(=O)c5ccc(Br)cc5)c4)nc3c21 [a4, 1-(2-(4-bromophenyl)-2-oxoethyl)-3-(1,6-dimethyl-12H-furo[2',3':1,2]phenanthro[3,4-d]imidazol-11-yl) pyridin-1-ium bromide]
IC50: 9.24 ± 0.2 µM
